The values that follow come from PubChem BioAssay (NCI).

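1) Cells in 96-well plates. 2) Compound, 48 h, 5 concentrations. 3) Linear interpolation between surrounding doses. 4) Unreached endpoint = highest concentration. TGI: concentration producing complete growth inhibition.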

Common to all, as to test: NCI-60 cell line screen, 48 h
Assay [1] deals with A549 NSCLC.
Assay [2] deals with SW-620 colon.
The subject of assay [3] is SF-539 CNS.
Assay [4] concerns SK-MEL-2 melanoma.
Assay [5] concerns NCI-H522 lung.
In assay [6] the test system is SR leukemia.
Assay [7] deals with UO-31 renal.
Assay [8] relates to UACC-257 melanoma.
Assay [9] relates to SF-295 CNS.
Assay [10] relates to SN12C renal.

For `COc1c(O)c(C=O)c2c(O)c(-c3c(C)cc4c(C(C)C)c(OC)c(O)c(C=O)c4c3O)c(C)cc2c1C(C)C`, the TGI in [1] was 11.6 µM; in [2], 17.7 µM; in assay [3], 12.8 µM; in assay [4], 11.1 µM; in assay [5] it was 6.56 µM; in [6] it was 22.7 µM. The TGI in assay [7] is 11.1 µM; in [8] it was 29 µM; in assay [9], 17 µM; in assay [10], 8.45 µM.

Regarding `O=S(Nc1ccccc1)c1ccc(N2CCOCC2)cc1` (stereo not drawn), the TGI in [1], in assay [2], in [3], in [4], in assay [5] and in assay [6] was over 100 µM each time. Also, the TGI in assay [7] was 42.7 µM; in assay [8], over 100 µM; in assay [9], over 100 µM; in assay [10], over 100 µM.

Turning to `Cc1ccc(OCC2OC(n3cnc4c(Cl)nc(N)nc43)CC2Oc2ccc(C)cc2)cc1` (stereo not drawn), the TGI in assay [1] is over 100 µM; in assay [2], over 100 µM; in assay [3] it was over 100 µM; in assay [4], over 56.9 µM; in assay [5], 12.1 µM; in assay [6], over 100 µM. Also, the TGI in assay [7] is 13.3 µM; in [8], over 100 µM; in assay [9], over 100 µM; in assay [10], over 100 µM.

Consider `CC1CCCC2(CC[N+](C)(CCC[N+](C)(C)C)CC2)C1` (stereo not drawn), for which the TGI in assay [1], in assay [2], in assay [3], in assay [4], in assay [5] and in assay [6] was over 100 µM in each case. Moreover, the TGI in assay [7], in [8], in assay [9] and in assay [10] was over 100 µM in each case.

For the molecule `COc1ccc2c3c1OC1C(=O)C=CC4(CC2)N(C)CCC314` (stereo not drawn), the TGI in assay [1] is 84.1 µM; in [2], over 100 µM; in [4], 54.3 µM; in assay [5], 33 µM; in assay [6], 33.7 µM; in assay [7], 78.5 µM. The TGI in assay [8], in assay [9] and in [10] was over 100 µM each time.

As for `O=[N+]([O-])c1ccc2sc(C=Nc3cnccn3)cc2c1`, the TGI in [1] is over 100 µM; in assay [2] it was over 100 µM; in [3] it was over 100 µM; in assay [4] it was 75.2 µM; in assay [5] it was over 100 µM; in assay [6], 45.5 µM. Moreover, the TGI in assay [7], in [8], in [9] and in assay [10] was over 100 µM each time.

For the molecule `COP(=O)(OC)C(Cc1cn(C(C)=O)c2ccccc12)C(=O)O` (stereo not drawn), the TGI in assay [1], in assay [2], in assay [4], in assay [5], in assay [6] and in assay [7] was over 100 µM each time. Also, the TGI in assay [8], in assay [9] and in assay [10] was over 100 µM throughout.

Turning to `O=c1[nH]nc(-c2ccccc2)n1/N=C\c1ccccc1`, the TGI in [1], in assay [2], in assay [3], in [4], in [5] and in assay [6] was over 100 µM each time. Moreover, the TGI in assay [7], in assay [8], in assay [9] and in [10] was over 100 µM each time.

Take `COc1cccc(CCN2CCN(CCCc3ccccc3)CC2)c1`: the TGI is over 100 µM in assay [1]; over 100 µM in assay [2]; over 100 µM in assay [3]; over 100 µM in assay [4]; 67.9 µM in assay [5]; over 100 µM in assay [6]. Also, the TGI in [7], in [8], in assay [9] and in [10] was over 100 µM in each case.

Turning to `CCCC(=O)NC(Nc1ccc(S(=O)(=O)Nc2cc(C)on2)cc1)(C(=O)OCC)C(F)(F)F` (stereo not drawn), the TGI in assay [1], in assay [2], in assay [3], in [4], in assay [5] and in [6] was over 100 µM throughout. For the same molecule, the TGI in assay [7], in assay [8], in assay [9] and in assay [10] was over 100 µM each time.

With `Cc1cc(S(=O)(=O)N/C(=C(\C#N)C(=O)c2ccc(Cl)cc2)[n+]2ccc(N(C)C)cc2)c([S-])cc1Cl`, the TGI in assay [1] is over 100 µM; in [3], over 100 µM; in assay [4], 83.4 µM; in assay [5], over 100 µM; in [6], over 100 µM; in assay [7], over 100 µM. The TGI in assay [9] and in assay [10] was over 100 µM throughout.

`C[N+](C)(C)c1ccc(C(N)C(=O)O)cc1` (stereo not drawn): the TGI in assay [2], in assay [4], in [5], in assay [6], in assay [7] and in assay [8] was over 100 µM throughout. The TGI in assay [9] and in [10] was over 100 µM throughout.

`NCCCN(CCCN(C(=O)Nc1ccccc1)c1ccccc1)C(=O)Nc1ccccc1`: the TGI in [1] was over 100 µM; in [2], 52.3 µM; in [4], 55.6 µM; in assay [5], 43.1 µM; in [6], over 100 µM; in [7], 65.8 µM. Also, the TGI was 43.1 µM in assay [8], 58.3 µM in assay [9] and over 100 µM in [10].

For `CC(=O)NCCC1CN(C(=O)/C=C/I)c2ccccc21` (stereo not drawn), the TGI in assay [1] is 33.1 µM; in assay [2], 4.53 µM; in assay [3], 21.1 µM; in assay [4], 14.8 µM; in assay [5], 2.83 µM; in [6] it was over 27.4 µM. The TGI in assay [7] is 6.85 µM; in assay [8], 20.4 µM; in assay [9] it was 28.9 µM; in assay [10], 13.3 µM.
